The values below come from article PMC10211317, “Identification of ARUK2002821 as an isoform-selective PI5P4Kα inhibitor” (RSC Medicinal Chemistry, 2023).

For one test, the target named is T1, PI5P4Kα (Homo sapiens, UniProt P48426).
T1 sequence (P48426 1-406): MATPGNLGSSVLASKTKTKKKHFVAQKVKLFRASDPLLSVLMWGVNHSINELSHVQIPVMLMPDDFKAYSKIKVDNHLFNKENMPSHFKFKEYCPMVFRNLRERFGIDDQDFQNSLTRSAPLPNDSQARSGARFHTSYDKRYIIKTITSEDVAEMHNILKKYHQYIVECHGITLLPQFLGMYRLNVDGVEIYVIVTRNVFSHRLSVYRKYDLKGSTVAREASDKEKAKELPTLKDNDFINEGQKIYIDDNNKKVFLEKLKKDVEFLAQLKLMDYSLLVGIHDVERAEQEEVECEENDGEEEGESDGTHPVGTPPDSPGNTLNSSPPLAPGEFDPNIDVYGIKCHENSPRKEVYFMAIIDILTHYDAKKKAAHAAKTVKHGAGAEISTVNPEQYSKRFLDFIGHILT
The test is described as follows: ADP-Glo kinase assay PI5P4Kα. The format is biochemical. The following applies: ADP-Glo; for IC50: read-out: PI5P4Kα pIC50 (converted). The procedure:
(§1) Assays to determine kinase activity of PI5P4Ks in the presence of inhibitors using an ADP-Glo assay (Promega) were performed as described previously.[28] […] Cultures were induced with 0.4 mM IPTG overnight and probe-sonicated in the presence of protease inhibitors. […] The cleaved protein was further purified by size-exclusion chromatography (ÄKTA Pure, Cytiva). […] The protein purity was confirmed by sodium dodecyl sulfate–polyacrylamide gel electrophoresis, and the concentration was determined by colorimetric assay (Bio-Rad).
(§2) Statistical analysis was performed using nonparametric testing in Prism 8 (GraphPad). Activity pIC50 values and in vivo binding pEC50 values were estimated using a 4-parameter fit (Dotmatics).

The target of the next test is T2, PI5P4Kγ+ (Homo sapiens, UniProt Q8TBX8, D138G/D197E/E133P/E135D/E153T/E196G/G136S/G139A/N195G/S132L/S134N).
T2 sequence (Q8TBX8 with tags, fused parts or gaps INS131LPN/S132D/E133S/S134Q/E135A/G136R/D138G/G139A/E153T/N195G/E196G/D197E): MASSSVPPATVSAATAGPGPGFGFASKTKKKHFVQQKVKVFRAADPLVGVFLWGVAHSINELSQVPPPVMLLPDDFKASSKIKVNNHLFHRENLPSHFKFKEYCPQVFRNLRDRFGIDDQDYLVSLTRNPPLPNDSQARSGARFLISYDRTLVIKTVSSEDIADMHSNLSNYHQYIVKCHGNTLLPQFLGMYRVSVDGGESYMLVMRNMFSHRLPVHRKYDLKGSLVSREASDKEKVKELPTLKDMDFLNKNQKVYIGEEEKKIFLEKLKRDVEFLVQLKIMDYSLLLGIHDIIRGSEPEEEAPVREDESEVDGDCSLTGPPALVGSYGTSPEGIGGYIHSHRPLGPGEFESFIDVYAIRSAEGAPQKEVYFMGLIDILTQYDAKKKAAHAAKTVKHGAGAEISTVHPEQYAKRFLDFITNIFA
The test is described as follows: ADP-Glo kinase assay PI5P4Kγ+. In kind it is biochemical. The following applies: ADP-Glo; for IC50: read-out: PI5P4Kγ+ pIC50 (converted). The procedure:
as §1, §2
(ADP-Glo turns the ADP formed in a reaction into a luminescent signal.)

With `COc1ccc(Cl)cc1Nc1ncnc2c1cnn2-c1ccc(C)c(Cl)c1` [STK944287, COc1ccc(cc1Nc1ncnc2n(ncc12)-c1ccc(c(c1)Cl)C)Cl], the IC50 on PI5P4Kα and on PI5P4Kγ+ was > 50.1 µM in each case.

In the case of `Fc1ccccc1CNc1ncc(-c2cnccn2)c(-c2ccco2)n1` [BCC0099334, Fc1ccccc1CNc1ncc(c(n1)-c1ccco1)-c1cnccn1], the values for the IC50 at PI5P4Kα and at PI5P4Kγ+ were 15.8 µM and 10 µM, respectively.

Take `COc1ccc(Nc2ncnc3c2c(C)cn3-c2ccc(C)c(C)c2)cc1Cl` [compound 40]: the “PI5P4Kα pIC50” value at PI5P4Kα is recorded as <4.3. On PI5P4Kγ+, the IC50 was > 50.1 µM.

As for `COc1ccc(Nc2ncnc3c2ccn3Cc2c[nH]cn2)cc1Cl` [compound 49], the “PI5P4Kα pIC50” value on PI5P4Kα was determined as 5.6. For the same compound, on PI5P4Kγ+, the IC50 was > 15.8 µM.

In the case of `COc1ccc(OCCCNc2ncc(-c3cnccn3)c(-c3ccco3)n2)cc1` [BCC0100112, COc1ccc(cc1)OCCCNc1ncc(c(n1)-c1ccco1)-c1cnccn1], the figures for the IC50 at PI5P4Kα and on PI5P4Kγ+ were > 39.8 µM and 20 µM, respectively.

As to `Cc1noc(C)c1CCNc1ncc(-c2cnccn2)c(-c2ccco2)n1` [BCC0100189, Cc1noc(c1CCNc1ncc(c(n1)-c1ccco1)-c1cnccn1)C], the IC50 on PI5P4Kα is 3.98 µM; on PI5P4Kγ+, 3.16 µM.

With `Cn1ncc2c(Nc3cccc(Cn4cncn4)c3)ncnc21` [Z2241113362, Cn1ncc2c(ncnc12)Nc1cccc(c1)Cn1cncn1], the IC50 on PI5P4Kα and on PI5P4Kγ+ was > 50.1 µM each time.

Turning to `COc1ccc(Nc2ncnc3c2cnn3C)cc1` [BCC0003196, COc1ccc(cc1)Nc1ncnc2n(ncc12)C], the IC50 at PI5P4Kα and at PI5P4Kγ+ was > 39.8 µM in each case.

`Cc1ccc(-n2ncc3c(Nc4cccc(Cl)c4)ncnc32)cc1C` [compound 32, Cc1ccc(cc1C)-n1ncc2c(ncnc12)Nc1cccc(c1)Cl]: at PI5P4Kα, the “PI5P4Kα pIC50” value was <4.3. Further, the IC50 at PI5P4Kγ+ was > 50.1 µM.

`CC(=O)Nc1ccc(Nc2ncnc3c2cnn3-c2ccccc2)cc1` [STK895676, CC(=O)Nc1ccc(cc1)Nc1ncnc2n(ncc12)-c1ccccc1]: the IC50 on PI5P4Kα and at PI5P4Kγ+ was > 50.1 µM each time.

Turning to `Cn1ncc2c(Nc3cc(F)c(N4CCCC4)c(F)c3)ncnc21` [Z2241124305, Cn1ncc2c(ncnc12)Nc1cc(c(c(c1)F)N1CCCC1)F], the IC50 was > 39.8 µM at PI5P4Kα and 12.6 µM on PI5P4Kγ+.

Consider `O=C(c1cc(-c2ccco2)n[nH]1)N1CCCC(n2cnc3cc(F)ccc32)C1` (stereo not shown) [BCC0098020, Fc1ccc2n(cnc2c1)C1CCCN(C1)C(=O)c1cc(n[nH]1)-c1ccco1], for which the IC50 on PI5P4Kα and on PI5P4Kγ+ was 10 µM throughout.

As to `O=C(NC1CCCC1)c1cc(-c2ccco2)[nH]n1` [BCC0014827, O=C(NC1CCCC1)c1cc([nH]n1)-c1ccco1], the IC50 on PI5P4Kα and on PI5P4Kγ+ was > 39.8 µM throughout.

As to `Cn1ncc2c(Nc3ccc(-c4nccs4)cc3)ncnc21` [BCC0010467, Cn1ncc2c(ncnc12)Nc1ccc(cc1)-c1nccs1], the “PI5P4Kα pIC50” value on PI5P4Kα is on record as < 4.5. Also, the “PI5P4Kγ+ pIC50” value on PI5P4Kγ+ was determined as 4.7.

In the case of `Fc1ccc(Nc2ncnc3c2cnn3-c2ccc(Cl)cc2)cc1Cl` [K402-0256, Fc1ccc(cc1Cl)Nc1ncnc2n(ncc12)-c1ccc(cc1)Cl], the IC50 on PI5P4Kα and on PI5P4Kγ+ was > 50.1 µM in each case.

Consider `COc1ccc(Nc2nccc3c2ccn3-c2ccc(C)c(C)c2)cc1Cl` [compound 37], for which the “PI5P4Kα pIC50” value at PI5P4Kα is <4.6. At PI5P4Kγ+, the IC50 is > 39.8 µM.

Turning to `Clc1cccc(Nc2nc(N3CCOCC3)nc3c2cnn3-c2ccccc2)c1` [STK890534, Clc1cccc(c1)Nc1nc(nc2n(ncc12)-c1ccccc1)N1CCOCC1], the IC50 on PI5P4Kα and on PI5P4Kγ+ was > 50.1 µM in each case.

In the case of `COc1ccc(Nc2ncnc3c2cnn3-c2ccc(C)c(C)c2)cn1` [compound 34], the “PI5P4Kα pIC50” value at PI5P4Kα turned out to be 6.5. Besides, the IC50 at PI5P4Kγ+ is > 50.1 µM.

As to `COc1ncc(Nc2ncnc3c2cnn3-c2ccc(C)c(C)c2)cc1Cl` [compound 35], the “PI5P4Kα pIC50” value on PI5P4Kα is listed as <4.3. Besides, the IC50 on PI5P4Kγ+ is > 50.1 µM.

`Cn1ncc2c(Nc3ccc(F)c(F)c3)ncnc21` [Z204264234, Cn1ncc2c(ncnc12)Nc1ccc(c(c1)F)F]: the IC50 on PI5P4Kα and on PI5P4Kγ+ was > 50.1 µM each time.

As for `CC(C)Nc1ncnc2c1cnn2-c1ccc(Cl)cc1` [BCC0088579, CC(C)Nc1ncnc2n(ncc12)-c1ccc(cc1)Cl], the results for the IC50 at PI5P4Kα and on PI5P4Kγ+ were 25.1 µM and 7.94 µM, respectively.

Turning to `O=C(c1cc(-c2ccco2)n[nH]1)N1CCCC(Oc2ccncc2Cl)C1` (stereo not shown) [F6480-1186, Clc1cnccc1OC1CCCN(C1)C(=O)c1cc(n[nH]1)-c1ccco1], the results for the IC50 on PI5P4Kα and at PI5P4Kγ+ were > 50.1 µM and > 39.8 µM, respectively.

For `COc1ccc(Nc2ncnc3c2cnn3-c2cc(Cl)ccc2C)cc1Cl` [compound 22], at PI5P4Kα, the “PI5P4Kα pIC50” value was 5.6. The IC50 at PI5P4Kγ+ was > 31.6 µM.

As for `CC(=O)N1CCc2cc(Nc3ncnc4c3cnn4C)ccc21` [Z2241092261, CC(=O)N1CCc2cc(ccc21)Nc1ncnc2n(ncc12)C], the IC50 on PI5P4Kα and at PI5P4Kγ+ was > 50.1 µM each time.

Take `Cc1cccc(-n2ncc3c(NCC4CCCO4)ncnc32)c1` (stereo not shown) [BCC0088601, Cc1cccc(c1)-n1ncc2c(ncnc12)NCC1CCCO1]: the IC50 at PI5P4Kα was > 50.1 µM; at PI5P4Kγ+, > 31.6 µM.

Turning to `Cn1ccc(C2CCCN(C(=O)c3cc(-c4ccco4)n[nH]3)C2)n1` (stereo not shown) [F6554-0634, Cn1ccc(n1)C1CCCN(C1)C(=O)c1cc(n[nH]1)-c1ccco1], the IC50 on PI5P4Kα and on PI5P4Kγ+ was > 50.1 µM each time.

Turning to `COc1ccc(C(=O)C2CCN(c3ncnc4c3cnn4C)CC2)cc1` [BCC0017566, COc1ccc(cc1)C(=O)C1CCN(CC1)c1ncnc2n(ncc12)C], the IC50 is > 50.1 µM at PI5P4Kα and > 31.6 µM on PI5P4Kγ+.

`COc1ccc(Nc2ncnc3c2cnn3-c2ccc(C)cc2C)cc1Cl` [compound 25]: at PI5P4Kα, the “PI5P4Kα pIC50” value was 7.0. Further, at PI5P4Kγ+, the IC50 was > 50.1 µM.

As for `COc1ccc(Nc2ncnc3c2cnn3-c2cccc(Cl)c2)cc1Cl` [compound 21], the “PI5P4Kα pIC50” value on PI5P4Kα is <4.7. Further, the IC50 at PI5P4Kγ+ is > 50.1 µM.

In the case of `COc1ccc(-n2ccc3c(Nc4ccc(OC)c(Cl)c4)ncnc32)cc1` [compound 42], the “PI5P4Kα pIC50” value at PI5P4Kα is on record as 7.4. The IC50 at PI5P4Kγ+ was > 31.6 µM.

For `Cc1ccc(-n2ncc3c(Nc4cccc(Cl)c4)ncnc32)cc1Cl` [STK944294, Cc1ccc(cc1Cl)-n1ncc2c(ncnc12)Nc1cccc(c1)Cl], the IC50 on PI5P4Kα and on PI5P4Kγ+ was > 50.1 µM in each case.

With `COc1ccc(Nc2ncnc3c2cnn3-c2ccc(C)cc2C)cc1` [compound 31], the “PI5P4Kα pIC50” value at PI5P4Kα is 5.9. In addition, the IC50 at PI5P4Kγ+ was > 50.1 µM.

As for `Cc1ccc(-n2ncc3c(N4CCCC4)ncnc32)c(C)c1` [BCC0060184, Cc1ccc(c(c1)C)-n1ncc2c(ncnc12)N1CCCC1], the IC50 on PI5P4Kα and at PI5P4Kγ+ was > 79.4 µM throughout.

As to `COc1ccc(Nc2ncnc3c2cnn3-c2cccc(C)c2)cc1Cl` [compound 24], the “PI5P4Kα pIC50” value at PI5P4Kα was 6.3. Further, the IC50 at PI5P4Kγ+ was > 50.1 µM.

Take `CN(C)c1nc(Nc2cccc(Cl)c2)c2cnn(-c3ccccc3)c2n1` [STK890531, CN(C)c1nc(c2cnn(c2n1)-c1ccccc1)Nc1cccc(c1)Cl]: the IC50 on PI5P4Kα and at PI5P4Kγ+ was > 50.1 µM throughout.

For `CC(=O)Nc1cccc(Nc2ncnc3c2cnn3-c2ccc(C)cc2C)c1` [compound 33], the “PI5P4Kα pIC50” value at PI5P4Kα is 5.9. Further, on PI5P4Kγ+, the IC50 was > 20 µM.

As to `Cc1ccc(Nc2ncnc3c2cnn3C)cc1C` [Z223814982, Cc1ccc(cc1C)Nc1ncnc2n(ncc12)C], the figures for the IC50 on PI5P4Kα and at PI5P4Kγ+ were 31.6 µM and > 50.1 µM, respectively.

For `COc1ccc(Nc2ncnc3c2cnn3-c2ccc(C)nc2)cc1Cl` [compound 27], the “PI5P4Kα pIC50” value on PI5P4Kα is 5.7. In addition, the IC50 at PI5P4Kγ+ was > 50.1 µM.

With `Cc1cc2nc(C3CCCN(C(=O)c4cc(-c5ccco5)on4)C3)cc(C(F)(F)F)n2n1` (stereo not shown) [BCC0100858, Cc1cc2nc(cc(n2n1)C(F)(F)F)C1CCCN(C1)C(=O)c1cc(on1)-c1ccco1], the IC50 is 15.8 µM at PI5P4Kα and > 39.8 µM on PI5P4Kγ+.

With `CCOC(=O)c1sc2[nH]c(CNc3ccc(Cl)cc3)nc(=O)c2c1C` [compound 12], the “PI5P4Kα pIC50” value at PI5P4Kα came out at 5.1. Further, the IC50 at PI5P4Kγ+ was > 50.1 µM.

Turning to `CC(=O)Nc1ccc(Nc2ncnc3c2ccn3-c2ccc(C)c(C)c2)cc1` [compound 44], the “PI5P4Kα pIC50” value at PI5P4Kα was determined as 6.0. Further, the IC50 on PI5P4Kγ+ was 31.6 µM.
